Patent US20010000177A1, “Novel class of thiomorpholino substituted thiazoles” (priority 1999, published 2001)
≈ marks a conversion by molar mass, not a printed value.

How the values were obtained:
Assay type in all cases: cell-based
[1] = tested on: Candida and Cryptococcus strains (organism not given); experiment: Broth microdilution antifungal activity, Table II first MIC/MCC column pair; conditions: first column pair of Table II; for MIC = Minimum inhibitory concentration (50% Inhibition): 48 hrs, 35° C., YNB broth pH 7.0; for MCC = Minimum cytolytic concentration: subculture on SDA plate
Experimental: (§1) Organisms: Three strains of Candida (Candida parpsilosis, Candida tropicalis, Candida albicans-ATCC 36082) as well as Cryptococcus neoformans were used for the initial testing. […] All clinical strains used in this study were blood culture isolates from the Clinical Microbiology Laboratory of Harbor-UCLA Medical Center, Torrance, Calif. The organisms were maintained on Sabourahd Dextrose Agar slants at 4° C. For experimentation, singlet suspensions of each organism were prepared by growing the yeast overnight at 27° C. on a rotating drum in yeast-nitrogen base broth (YNB) with amino acids (Difco, Detroit, Mich.), pH 7.0 with 0.05M morpholinepropanesulfonic acid (MOPS). The suspension was then centrifuged and washed twice with 0.85% NaCl. This was followed by sonication of the washed cell suspension for 4s (Branson Sonifier, model 350, Danbury, Conn.). The singlet blastospores were counted in a hemocytometer and adjusted to the desired concentration in 0.85% NaCl.
(§2) Antifungal Activity: The antifungal activity of the compounds and Fluconazole against the Candida and Cryptococcus strains were determined using a modification of a broth microdilution technique. Test compounds were diluted in DMSO to a 1.0 mg/ml ratio then diluted to 64 μg/ml in YNB broth, pH 7.0 with MOPS (Fluconazole was used as the control). This was to provide a working solution of each compound. Using a 96-well plate, wells 1 and 3 through 12 were prepared with YNB broth, […] dilutions of the compound solution were made in wells 2 through 11 (concentration ranges were 64 to 0.125 μg/ml). Well one served as a sterility control and blank for the spectrophotometric assays. Well twelve served as a growth control. The microtiter plates were inoculated with 10 ul in each of well 2 through 11 (final inoculum size was 10^4 organisms/ml). Inoculated plates were incubated for 48 hrs., at 35° C. The MIC values were determined spectrophotometrically by measuring the absorbance at 420 nm (Automatic Microplate Reader, DuPont Instruments, Wilmington, Del.) after agitation of the plates for 2 min with a vortex-mixer (Vorte-Genie 2 Mixer, Scientific Industries, Inc., Bolemia, N.Y.). […] With the turbidity assay this was defined as the lowest drug concentration at which turbidity in the well was <50% of the control (IC50) Minimal Cytolytic Concentrations (MCC) were determined by subculturing all wells from the 96-well plate onto a Sabourahd Dextrose Agar (SDA) plate and incubated for 1 to 2 days at 35° C. and the viability was checked.

[2] = tested on: Candida and Cryptococcus strains (organism not given); experiment: Broth microdilution antifungal activity, Table II second MIC/MCC column pair; conditions: second column pair of Table II; for MIC = Minimum inhibitory concentration (50% Inhibition): 48 hrs, 35° C., YNB broth pH 7.0; for MCC = Minimum cytolytic concentration: subculture on SDA plate
Experimental: (§3) Organisms: Three strains of Candida (Candida parpsilosis, Candida tropicalis, Candida albicans-ATCC 36082) as well as Cryptococcus neoformans were used for the initial testing. Active compounds were then tested against fluconazole resistant Candida albicans, Candida krusei, Torulopsis glabrata, and Cryptococcus neoformans along with Sporothrix shenkii and Aspergillus flavus in the secondary round of testing. All clinical strains used in this study were blood culture isolates from the Clinical Microbiology Laboratory of Harbor-UCLA Medical Center, Torrance, Calif. The organisms were maintained on Sabourahd Dextrose Agar slants at 4° C. For experimentation, singlet suspensions of each organism were prepared by growing the yeast overnight at 27° C. on a rotating drum in yeast-nitrogen base broth (YNB) with amino acids (Difco, Detroit, Mich.), pH 7.0 with 0.05M morpholinepropanesulfonic acid (MOPS). The suspension was then centrifuged and washed twice with 0.85% NaCl. This was followed by sonication of the washed cell suspension for 4s (Branson Sonifier, model 350, Danbury, Conn.). The singlet blastospores were counted in a hemocytometer and adjusted to the desired concentration in 0.85% NaCl.
as §2

[3] = tested on: Candida and Cryptococcus strains (organism not given); experiment: Broth microdilution antifungal activity, Table II third MIC/MCC column pair; conditions: for MIC = Minimum inhibitory concentration (50% Inhibition): 48 hrs, 35° C., YNB broth pH 7.0; for MCC = Minimum cytolytic concentration: subculture on SDA plate
Experimental: as §3, §2

[4] = tested on: Candida and Cryptococcus strains (organism not given); experiment: Broth microdilution antifungal activity, Table II fourth MIC/MCC column pair; conditions: fourth column pair of Table II; for MIC = Minimum inhibitory concentration (50% Inhibition): 48 hrs, 35° C., YNB broth pH 7.0; for MCC = Minimum cytolytic concentration: subculture on SDA plate
Experimental: as §1, §2

Compound	MIC = Minimum inhibitory concentration (50% Inhibition) [1]	MCC = Minimum cytolytic concentration [1]	MIC = Minimum inhibitory concentration (50% Inhibition) [2]	MCC = Minimum cytolytic concentration [2]	MIC = Minimum inhibitory concentration (50% Inhibition) [3]	MCC = Minimum cytolytic concentration [3]	MIC = Minimum inhibitory concentration (50% Inhibition) [4]	MCC = Minimum cytolytic concentration [4]
C=CCNCc1ccc(-c2csc(-c3ccc(F)cc3)n2)cc1 [Example 1n, 2-(4′-fluorophenyl)-4-[4″-(N-allylaminomethyl)phenyl]thiazole]	8 µg/mL (≈ 24.7 µM)	16 µg/mL	4 µg/mL (≈ 12.3 µM)	8 µg/mL	8 µg/mL (≈ 24.7 µM)	16 µg/mL	8 µg/mL (≈ 24.7 µM)	8 µg/mL
CCCN(C)Cc1ccc(-c2csc(-c3ccc([N+](=O)[O-])cc3)n2)cc1 [Example 1o, 2-(4′-nitrophenyl)-4-[4″-(N-methyl-N-propylaminomethyl)phenyl]thiazole]	1 µg/mL (≈ 2.72 µM)	4 µg/mL	1 µg/mL (≈ 2.72 µM)	4 µg/mL	2 µg/mL (≈ 5.44 µM)	32 µg/mL	0.125 µg/mL (≈ 0.34 µM)	2 µg/mL
CN(C)CCSCc1ccc(-c2csc(-c3ccc(Cl)cc3)n2)cc1 [Example 1rr, 2-(4′-chlorophenyl)-4-[4″-[(2-dimethylaminoethyl-thio)methyl]phenyl]thiazole]	4 µg/mL (≈ 10.3 µM)	8 µg/mL	4 µg/mL (≈ 10.3 µM)	8 µg/mL	4 µg/mL (≈ 10.3 µM)	8 µg/mL	4 µg/mL (≈ 10.3 µM)	8 µg/mL
CNCCN(C)Cc1ccc(-c2csc(-c3ccc(Cl)cc3)n2)cc1 [Example 1tt, 2-(4′-chlorophenyl)-4-[4″-(N-methyl-N-(2-N-methylaminoethyl)-amino-methyl)phenyl]thiazole]	4 µg/mL (≈ 10.8 µM)	16 µg/mL	4 µg/mL (≈ 10.8 µM)	16 µg/mL	2 µg/mL (≈ 5.38 µM)	16 µg/mL	2 µg/mL (≈ 5.38 µM)	4 µg/mL
CN(C)CCN(C)Cc1ccc(-c2csc(-c3ccc(Cl)cc3)n2)cc1 [Example 1u, 2-(4′-chlorophenyl)-4-[4″-(N-methyl-N-(2-dimethylaminoethyl)aminomethyl)-phenyl]thiazole]	8 µg/mL (≈ 20.7 µM)	8 µg/mL	4 µg/mL (≈ 10.4 µM)	4 µg/mL	4 µg/mL (≈ 10.4 µM)	4 µg/mL	4 µg/mL (≈ 10.4 µM)	4 µg/mL
CN(C)Cc1ccc(-c2csc(-c3ccc([N+](=O)[O-])cc3)n2)cc1 [Example 1x, 2-(4′-nitrophenyl)-4-[4″-(dimethylaminomethyl)phenyl]thiazole]	1 µg/mL (≈ 2.95 µM)	2 µg/mL	1 µg/mL (≈ 2.95 µM)	2 µg/mL	1 µg/mL (≈ 2.95 µM)	2 µg/mL	2 µg/mL (≈ 5.89 µM)	2 µg/mL
CCCN(C)Cc1ccc(-c2csc(-c3ccc(C#N)cc3)n2)cc1 [Example 6e, 2-(4′-cyanophenyl)-4-[4″-(N-methyl-N-propylaminomethyl)phenyl]-thiazole]	4 µg/mL (≈ 11.5 µM)	4 µg/mL	2 µg/mL (≈ 5.76 µM)	4 µg/mL	2 µg/mL (≈ 5.76 µM)	16 µg/mL	0.5 µg/mL (≈ 1.44 µM)	1 µg/mL
CCCN(C)Cc1ccc(-c2csc(-c3ccc(C(F)(F)F)cc3F)n2)cc1 [Example 6f, 2-(2′-fluoro-4′-trifluoromethylphenyl)-4-[4″-(N-methyl-N-propylamino-methyl)phenyl]thiazole]	8 µg/mL (≈ 19.6 µM)	16 µg/mL	4 µg/mL (≈ 9.79 µM)	8 µg/mL	2 µg/mL (≈ 4.9 µM)	8 µg/mL	4 µg/mL (≈ 9.79 µM)	8 µg/mL
CCCN(C)Cc1ccc(-c2csc(-c3ccc(I)cc3)n2)cc1 [Example 6g, 2-(4′-iodophenyl)-4-[4″-(N-methyl-N-propylaminomethyl)phenyl]-thiazole]	8 µg/mL (≈ 17.8 µM)	4 µg/mL	4 µg/mL (≈ 8.92 µM)	2 µg/mL	8 µg/mL (≈ 17.8 µM)	4 µg/mL	4 µg/mL (≈ 8.92 µM)	4 µg/mL
CCCN(C)Cc1ccc(-c2csc(-c3ccc(OC)c([N+](=O)[O-])c3)n2)cc1 [Example 6k, 2-(4′-methoxy-3′-nitrophenyl)-4-[4″-(N-methyl-N-propylamino-methyl)phenyl]thiazole]	1 µg/mL (≈ 2.52 µM)	2 µg/mL	0.5 µg/mL (≈ 1.26 µM)	2 µg/mL	1 µg/mL (≈ 2.52 µM)	2 µg/mL	1 µg/mL (≈ 2.52 µM)	1 µg/mL
